Source: patent US7868026B2, “Therapeutic compounds” (Pfizer Inc., priority 2005, dated 2011)
Like-named read-outs stand apart in the source and are kept apart here.

Key:
CYP3A4 [1] = target: T1, CYP3A4 (Homo sapiens, UniProt P08684); experiment: Determination of compound Kiapp against recombinant CYP3A4 enzyme (BFC fluorescent substrate); type: biochemical
Procedure: 1. Determination of compound Kiapp
A determination of the Kiapp of the compounds of the invention against recombinant CYP3A4 enzyme was performed as follows. The assay was performed in a 100 mM sodium phosphate buffer pH 7.0, 5 mM TCEP and containing 2% dimethylformamide (final concentration) upon addition of substrate and inhibitor. A typical reaction for the determination of Kiapp values was carried at room temperature in a solid black Costar u-bottom 96-well polypropylene plate. In each well, recombinant CYP3A4 enzyme (5.5 nM or 8 nM, final concentration depending on the commercial source of the enzyme) was pre-incubated in the presence of the inhibitor for at least 30 minutes in the assay buffer. When pre-incubation was completed (˜30 min), the reaction was initiated by adding NADPH (200 uM, final concentration), and 7-benzyloxy-4-(trifluoromethyl)-coumarin (BFC) (5 uM, final concentration). The oxidation of the coumarin substrate was recorded by a 96-well plate reader POLARstar (BMG LABTECH, Offenburg, Germany).
The initial reaction velocities were measured during the first 5 min of the reaction when the release of the fluorescent product is linear with time, in the absence and in the presence of various concentrations of inhibitors. For non-partial & partial inhibitors, the Kiapp values were determined by using the equation for tight-binding inhibitor developed by Morrison, J F (Morrison J F. Biochim Biophys Acta. 1969, 185: 269-86) and by Szedlaseck S E et al. (Szedlascek, S. E., Ostafe, V., Serban, M., and Vlad, M.O. Biochem. J. 1988, 254:311-312), respectively.
The fluorescent substrate BFC was purchased from Sigma (St Louis, Mo.). Two commercial sources of recombinant enzymes were used in this study: recombinant CYP3A4−b5 enzyme (Baculosomes®) was purchased from Invitrogen (Carlsbad, Calif.) and the recombinant CYP3A4+b5 enzyme (Supersomes®) was purchased from BD Biosciences (Woburn, Mass.).

CYP3A4 [2] = target: T1, CYP3A4; experiment: Determination of IC50 against CYP3A4 by measurement of inhibition of midazolam metabolism (human liver microsomes, 1-hydroxymidazolam by LC-MS/MS); type: biochemical; parameters: 0.1 mg/mL human liver microsomes; details: 2 μM midazolam, 0.1 mg/mL human liver microsomes
Procedure: 3. Determination of IC50 Against CYP3A4 by Measurement of Inhibition of Midazolam Metabolism
This assay was performed using a standard 96 well plate design. […] The incubation substrate mix contains 2 μM midazolam, 0.1 mg/mL human liver microsomes, 1 mM NADPH, and potassium phosphate buffer (100 mM, pH 7.4). Quantitation of metabolite peak area ratio against internal standard is determined by LC-MS/MS analysis. The production of 1-hydroxymidazolam from midazolam metabolism is determined after incubation for eight minutes by comparison to a standard curve generated for the metabolite.
Samples were analyzed in the MRM mode using a Sciex API 3000 mass spectrometer (Applied Biosystems, Foster City, Calif.) with a Paradigm MS4 binary pump (Michrom BioResources Inc., Auburn, Calif.) and a LEAP CTC PAL autosampler (LEAP Technologies, Carrboro, N.C.). A Phenomenex Synergi, 4μ, Polar-RP, 10×2.0 mm column (Phenomenex, Torrance, Calif.) was used for separation with a mobile phase composition of: 0.1% formic acid in water (A) and: 0.1% formic acid in methanol (B). The following gradient was used: […]
The sample injection volume was 10 μL and flow was split post-column with 0.4 mL/min going to the mass spectrometer. Analysis was performed using the following API 3000 mass spectrometer settings: […]

[3] = Baculo. enzyme preparation, read-out: Kiapp (BFC, Baculo.)
[4] = Super. enzyme preparation, read-out: Kiapp (BFC, Super.)

T1 sequence (P08684 whole entry): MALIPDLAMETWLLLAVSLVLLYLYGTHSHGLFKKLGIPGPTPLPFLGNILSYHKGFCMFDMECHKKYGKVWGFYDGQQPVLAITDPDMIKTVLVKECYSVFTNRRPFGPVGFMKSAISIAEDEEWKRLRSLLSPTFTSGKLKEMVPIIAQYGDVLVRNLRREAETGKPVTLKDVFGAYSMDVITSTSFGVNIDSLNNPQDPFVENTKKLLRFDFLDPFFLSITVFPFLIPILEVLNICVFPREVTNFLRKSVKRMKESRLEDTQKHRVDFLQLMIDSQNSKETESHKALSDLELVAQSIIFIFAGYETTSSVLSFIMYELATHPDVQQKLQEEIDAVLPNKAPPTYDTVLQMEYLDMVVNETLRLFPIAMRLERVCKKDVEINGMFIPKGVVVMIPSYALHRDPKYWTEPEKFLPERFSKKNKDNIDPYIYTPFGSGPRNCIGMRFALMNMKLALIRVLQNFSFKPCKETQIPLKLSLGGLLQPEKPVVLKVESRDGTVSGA

Structure (SMILES) | Ki (CYP3A4 [1]; [3]) [nM] | Ki (CYP3A4 [1]; [4]) [nM] | IC50 (CYP3A4 [2]) [nM]
Cc1cncc(NS(=O)(=O)c2ccccc2C(=O)NC(C(C)C)C(C)C)c1 [Example 92, N-(1-isopropyl-2-methylpropyl)-2-{[(5-methylpyridin-3-yl)amino]sulfonyl}benzamide] | 45.7 | 17.5 | 22
CN(Cc1ccc(C(F)(F)F)cc1)C(=O)c1ccccc1S(=O)(=O)Nc1cccnc1 [Example 140, N-methyl-2-[(pyridin-3-ylamino)sulfonyl]-N-[4-(trifluoromethyl)benzyl]benzamide] | 160 | 17.3 | 56
COc1cncc(NS(=O)(=O)c2ccccc2C(=O)NCC(F)(F)C(F)(F)C(F)(F)F)c1 [Example 131, N-(2,2,3,3,4,4,4-heptafluorobutyl)-2-{[(5-methoxypyridin-3-yl)amino]sulfonyl}benzamide] | > 1000 | 329 | > 750
CCOc1ccncc1NS(=O)(=O)c1ccccc1C(=O)N(C)Cc1ccccc1F [Example 124, 2-{[(4-ethoxypyridin-3-yl)amino]sulfonyl}-N-(2-fluorobenzyl)-N-methylbenzamide] | 136 | 18 | 14
CN(Cc1ccc(F)cc1)C(=O)c1ccccc1S(=O)(=O)Nc1cccnc1 [Example 141, N-(4-fluorobenzyl)-N-methyl-2-[(pyridin-3-ylamino)sulfonyl]benzamide] | 172 | 21.1 | 36
COCCN(C(=O)c1ccccc1S(=O)(=O)Nc1cncc(C)c1)C(C)C [Example 130, N-isopropyl-N-(2-methoxyethyl)-2-{[(5-methylpyridin-3-yl)amino]sulfonyl}benzamide] | 134 | 62.8 | 22
CCOc1ccncc1NS(=O)(=O)c1ccccc1C(=O)N(C)Cc1ccc(C(F)(F)F)cc1 [Example 122, 2-{[(4-ethoxypyridin-3-yl)amino]sulfonyl}-N-methyl-N-[4-(trifluoromethyl)benzyl]benzamide] | 49.5 | 10 | 31
COc1ccncc1NS(=O)(=O)c1ccccc1C(=O)N(C)Cc1ccc(F)cc1 [Example 143, N-(4-fluorobenzyl)-2-{[(4-methoxypyridin-3-yl)amino]sulfonyl}-N-methylbenzamide] | 169 | 29 | 58
Cc1cncc(NS(=O)(=O)c2ccccc2C(=O)NCc2ccc(C#N)cc2Cl)c1 [Example 91, N-(2-chloro-4-cyanobenzyl)-2-{[(5-methylpyridin-3-yl)amino]sulfonyl}benzamide] | 58 | 17.2 | 18
CCOc1ccncc1NS(=O)(=O)c1ccccc1C(=O)N(C)Cc1cccc(F)c1 [Example 103, 2-{[(4-ethoxypyridin-3-yl)amino]sulfonyl}-N-(3-fluorobenzyl)-N-methylbenzamide] | 129 | 26 | 21
Nc1cncc(NS(=O)(=O)c2ccccc2C(=O)NCc2ccc(F)c(F)c2)c1 [Example 117, 2-{[(5-aminopyridin-3-yl)amino]sulfonyl}-N-(34-difluorobenzyl)benzamide] | 159 | 14.8 | 20
Cc1cncc(NS(=O)(=O)c2ccccc2C(=O)NCc2ccc3c(c2)CCO3)c1 [Example 94, N-(2,3-dihydro-1-benzofuran-5-ylmethyl)-2-{[(5-methylpyridin-3-yl)amino]sulfonyl}benzamide] | 182 | 25.7 | 16
COc1ccncc1NS(=O)(=O)c1ccccc1C(=O)N(C)Cc1ccccc1F [Example 125, N-(2-fluorobenzyl)-2-{[(4-methoxypyridin-3-yl)amino]sulfonyl}-N-methylbenzamide] | 185 | 31.2 | 20
Cc1ccncc1NS(=O)(=O)c1ccccc1C(=O)N(C)Cc1ccccc1 [Example 139, N-benzyl-N-methyl-2-{[(4-methylpyridin-3-yl)amino]sulfonyl}benzamide] | 388 | 51.1 | 48
Cc1ccncc1NS(=O)(=O)c1ccccc1C(=O)N(C)Cc1ccc(F)cc1 [Example 144, N-(4-fluorobenzyl)-N-methyl-2-{[(4-methylpyridin-3-yl)amino]sulfonyl}benzamide] | 327 | 39 | 72
O=C(NCc1ccc(F)c(F)c1)c1ccccc1S(=O)(=O)Nc1cncc(OCc2ccccc2)c1 [Example 393, 2-({[5-(benzyloxy)pyridin-3-yl]amino}sulfonyl)-N-(3,4-diflorobenzyl)benzamide] |  |  | 8
CCC(C)NC(=O)c1ccccc1S(=O)(=O)Nc1cncc(C)c1 (stereo not drawn) [Example 121, N-(sec-butyl)-2-{[(5-methylpyridin-3-yl)amino]sulfonyl}benzamide] | 490 | 71.2 | 31
CCCN(C(=O)c1ccccc1S(=O)(=O)Nc1cncc(OC)c1)C(C)C [Example 100, N-isopropyl-2-{[(5-methoxypyridin-3-yl)amino]sulfonyl}-N-propylbenzamide] | 88.3 | 35.7 | 14
COCCN(C(=O)c1ccccc1S(=O)(=O)Nc1cccnc1)C(C)C [Example 128, N-isopropyl-N-(2-methoxyethyl)-2-[(pyridin-3-ylamino)sulfonyl]benzamide] | 448 | 54.9 | 67
CCOc1ccncc1NS(=O)(=O)c1ccccc1C(=O)NCC(C)CC (stereo not drawn) [Example 115, 2-{[(4-ethoxypyridin-3-yl)amino]sulfonyl}-N-(2-methylbutyl)benzamide] | 124 | 26 | 23
COc1cncc(NS(=O)(=O)c2ccc(OC)cc2C(=O)NCc2ccc(F)cc2)c1 [Example 111, N-(4-fluorobenzyl)-5-methoxy-2-{[(5-methoxypyridin-3-yl)amino]sulfonyl}benzamide] | 27.3 | 6.8 | 10
COc1cncc(NS(=O)(=O)c2ccccc2C(=O)NCc2c(Cl)cccc2Cl)c1 [Example 133, N-(2,6-dichlorobenzyl)-2-{[(5-methoxypyridin-3-yl)amino]sulfonyl}benzamide] | 67.8 | 11.6 | 18
CCC(C)(C)NC(=O)c1ccccc1S(=O)(=O)Nc1cnccc1OC [Example 106, N-(1,1-dimethylpropyl)-2-{[(4-methoxypyridin-3-yl)amino]sulfonyl}benzamide] | 345 | 87.5 | 51
COc1cncc(NS(=O)(=O)c2ccccc2C(=O)N(Cc2nccn2C)C(C)C)c1 [Example 97, N-isopropyl-2-{[(5-methoxypyridin-3-yl)amino]sulfonyl}-N-[(1-methyl-1H-imidazol-2-yl)methyl]benzamide] | 421 | 157 | 107
COc1cncc(NS(=O)(=O)c2ccccc2C(=O)N(CC(C)O)C(C)C)c1 (stereo not drawn) [Example 99, N-(2-hydroxypropyl)-N-isopropyl-2-{[(5-methoxypyridin-3-yl)amino]sulfonyl}benzamide] | 406 | 223 | 90
CCC(C)NC(=O)c1ccccc1S(=O)(=O)Nc1cncc(N)c1 (stereo not drawn) [Example 113, 2-{[(5-aminopyridin-3-yl)amino]sulfonyl}-N-(sec-butyl)benzamide] | 698 | 97.5 | 90
COc1ccncc1NS(=O)(=O)c1ccccc1C(=O)N[C@H](C)C(C)C [Example 112, N-[(1R)-12-dimethylpropyl]-2-{[(4-methoxypyridin-3-yl)amino]sulfonyl}benzamide] | 438 | 119 | 46
CN(c1cccnc1)S(=O)(=O)c1ccccc1C(=O)NCc1ccc(F)c(F)c1 [Example 327, N-(3,4-difluorobenzyl)-2-{[methyl(pyridin-3-yl)amino]sulfonyl}benzamide] | 86.4 | 19.8 | 
